From paper PMC9020739, “Identification of a two-component regulatory system involved in antimicrobial peptide resistance in Streptococcus pneumoniae” (PLoS Pathogens, 2022) come the findings set out here.

In data set [1] the test system is Nc1nc2c(ncn2[C@@H]2O[C@H](COP(=O)(O)OP(=O)(O)OP(=O)(O)O)[C@@H](O)[C@H]2O)c(=O)[nH]1. Briefly: purified protein, by the assay type. It is filed as biochemical, Streptococcus pneumoniae. The note with it: other: ATPase/GTPase activity as a function of nucleotide concentration, fitted with positive cooperativity; proteoliposomes; pH 8.0. On the procedure:
(§1) E. coli BL21(DE3) cells were transformed with pRSF-Duet1-BceAB WT, K48A or E170Q and selected on LB-agar plates containing 50 μg/mL kanamycin. One colony was inoculated into in 2L-baffled flasks containing 500 mL of 2YT medium and 50 μg/mL kanamycin and grown at 37°C, 180 rpm to OD600 of 0.6. Protein expression was induced by adding IPTG to a final concentration of 1 mM. Induction was performed overnight at 25°C and cells were harvested by centrifugation at 7,000 g for 20 min.
(§2) Cells were resuspended in buffer A (HEPES-NaOH 100 mM pH 8.0, NaCl 150 mM) and lysed by passaging them three times through a cell disruptor (Microfluidizer, Microfluidics) at 18,000 psi (or 1,24 x 108 Pa). Undisrupted cells and cell debris were removed by centrifugation at 15,000 x g for 30 min at 4°C. Membranes were harvested from the supernatant after ultracentrifugation at 150,000 x g for 1 h at 4°C. Membranes were resuspended in 20 mL of buffer A and centrifuged once again at 150,000 x g for 1 h at 4°C. Membrane pellets were homogenized in buffer HEPES-NaOH 100 mM pH 8.0, NaCl 150 mM and 20% glycerol, and stored at -80°C.
(§3) For the purification of BceAB, membranes from 0,5 L cell culture were diluted in buffer B (100 mM d’HEPES-NaOH pH 8, 150 mM NaCl, 10% glycerol) to a protein concentration of 4 mg/mL and solubilized with 0.5% (w/v) LMNG for 2 h at 4°C. After ultracentrifugation at 150,000 x g for 1 h at 4°C, the supernatant containing solubilized proteins was diluted four times using buffer B and loaded on Ni^2+-charged immobilized metal-ion affinity chromatography (IMAC) column (1 mL HisTrap HP, Cytiva). The column was washed with 10 mL of buffer B containing 0.005% (w/v) LMNG and 20 mM of imidazole. The column was further washed with the same buffer until OD280nm reached basal levels. BceAB was eluted by buffer B containing 0.005% (w/v) LMNG and an imidazole gradient from 20 to 500 mM of imidazole. Purified BceAB was dialyzed into buffer B containing 0.005% (w/v) LMNG and stored at -80°C.
(§4) The proteoliposomes were prepared as previously described for the transporter BmrA [50]. Proteoliposomes were loaded on sucrose gradient with different layers of 400 μL of 50 mM HEPES-KOH pH 8.0 buffer containing 30, 20, 15 or 10% of sucrose. One mL of proteoliposomes was loaded on the top of the sucrose gradient and ultra-centrifuged at 200,000 x g for 12 h at 4°C. Proteoliposomes were typically collected from the 15% layer and were loaded on SDS-PAGE to analyze and quantify the presence of BceAB by using a standard-curve of purified BceAB and ImageJ.
(§5) These activities were performed as previously described.

Data set [2] relates to Nc1ncnc2c1ncn2[C@@H]1O[C@H](COP(=O)(O)OP(=O)(O)OP(=O)(O)O)[C@@H](O)[C@H]1O. The data set can be described thus: purified protein, by the assay type. It is filed as biochemical, Streptococcus pneumoniae. To be noted: other: ATPase/GTPase activity as a function of nucleotide concentration, fitted with positive cooperativity; proteoliposomes; pH 8.0. On the procedure: as §1, §2, §3, §4, §5

In data set [3] the test system is bceAB and tcs01 genes in S. pneumoniae D39 WT. The data set can be described thus: Quantification of gene expression by qPCR. It is filed as cell-based, Streptococcus pneumoniae. To be noted: D39 wild-type; vancomycin 375 ng/ml for 15 min; n = 8. Here is the method:
S. pneumoniae D39 WT and Δtcs01 strains were routinely grown to OD600nm = 0.3 in THY. Then 1 μg/mL of bacitracin was added to the growth media for up to 30 min. Samples were taken at time points shown in the results section. Next, the cultures were mixed with RNA protect (Qiagen) at 1:1 ratio and incubated at room temperature for 5 min and centrifuged for 10 min at 3, 200 g at 4°C. The supernatant was decanted and the pellet was stored at -80°C. The bacteria were resuspended in 100 μL of sterile Tris-EDTA (TE), containing 15 mg/mL lysozyme (Sigma) then 20 μL of Proteinase K (20 mg/mL) (Roche) were added. The sample was vortexed 5 times for 10 sec at two-minutes intervals. Then 350 μL of lysis buffer from the Nucleospin RNA kit (Macherey-Nagel) were added to the sample with 3.5 μL of β-mercaptoethanol and 25 mg of glass beads (Sigma). The cells were lysed by continual vortexing for 5 min. The mRNA was extracted according to the manufacturer’s instructions. After elution, RNA samples were incubated with 5 μL of DNAse for 20 min at room temperature, then inactivated by heating for 70°C for 5 min. RNA concentration was measured using Nanovue (GE Healthcare). For cDNA synthesis 1 μg of RNA was generally used with the SuperScript III kit (Invitrogen) containing a reverse transcriptase, a set of primers, dNTPs, MgCl2 random hexamers and […] after the cDNA generation according to manufacturer’s instructions. Samples were then stored at -20°C. qPCR measurements were done with 2.5 μL of cDNA mixed with 1 μL (3 μM final) of forward and reverse primers, 5 μL iQ SYBR Green Supermix (BioRad) and 0.5 μL water using the CFX Connect Optical Module (BioRad) program as follows: 95°C for 3 min, then a repeat 40 times of 95°C for 10 sec, 55°C for 30 sec, and a fluorescence reading.

Another data set relates to S. pneumoniae D39 ΔbceAB. The format is cell-based, Streptococcus pneumoniae. The note with it: D39 strain; 2-fold broth dilution, Todd-Hewitt medium, 37°C, 15 h; two to four biological replicates, each technical duplicates. Here is the method:
(§6) The MIC of various antimicrobial peptides for R6, R800 and D39 strains was determined by classical 2-fold broth dilution method. Cells were first grown in Todd-Hewitt medium at 37°C without agitation and in anaerobic conditions until the absorbance reaches approximatively 0.3. Complementation strains were grown with 0.5 μM ComS inducer until the appropriate OD. Cells were then diluted at final OD600nm = 0.002 in 96-well plates containing 300 μL of Todd-Hewitt medium (and 2 μM ComS inducer for the complementation strains) with serial dilutions of antimicrobial peptides. Pneumococcal growth was monitored by a microplate reader (TECAN) at 37°C without agitation. The absorbance was followed at 600 nm every 15 min for 15 h.

The next data set relates to S. pneumoniae R6 Δtcs01. The format is cell-based, Streptococcus pneumoniae. The note with it: R6 strain; 2-fold broth dilution, Todd-Hewitt medium, 37°C, 15 h; two to four biological replicates, each technical duplicates. Here is the method:
as §6

The next data set deals with S. pneumoniae R6 WT. It is filed as cell-based, Streptococcus pneumoniae. The note with it: R6 strain. Here is the method: as §6
Data set [4] deals with S. pneumoniae R800 ΔbceAB. It is filed as cell-based, Streptococcus pneumoniae. To be noted: R800 strain; 2-fold broth dilution, Todd-Hewitt medium, 37°C, 15 h; at least biological triplicates, each technical duplicates. Here is the method:
as §6

Data set [5] deals with S. pneumoniae D39 ΔbceAB/tcs01. The format is cell-based, Streptococcus pneumoniae. To be noted: D39 strain; 2-fold broth dilution, Todd-Hewitt medium, 37°C, 15 h; two to four biological replicates, each technical duplicates. Here is the method:
as §6

For the next data set, the system named is S. pneumoniae D39 WT. It is filed as cell-based, Streptococcus pneumoniae. The note with it: D39 strain. Here is the method:
as §6

Data set [6] has as its system S. pneumoniae R800 Δhk01-PcomX-hk01. It is filed as cell-based, Streptococcus pneumoniae. The note with it: R800 complementation strain, 2 μM ComS inducer; 2-fold broth dilution, Todd-Hewitt medium, 37°C, 15 h; at least biological triplicates, each technical duplicates. On the procedure: as §6
In a further data set the test system is S. pneumoniae D39 Δtcs01. It is filed as cell-based, Streptococcus pneumoniae. The note with it: D39 strain; 2-fold broth dilution, Todd-Hewitt medium, 37°C, 15 h; two to four biological replicates, each technical duplicates. Here is the method: as §6
The subject of another data set is S. pneumoniae R6 ΔbceAB. The format is cell-based, Streptococcus pneumoniae. To be noted: R6 strain; 2-fold broth dilution, Todd-Hewitt medium, 37°C, 15 h; two to four biological replicates, each technical duplicates. Here is the method: as §6
Data set [7] relates to S. pneumoniae R800 ΔbceAB-Δhk01-PcomX-hk01. It is filed as cell-based, Streptococcus pneumoniae. The note with it: R800 complementation strain, 2 μM ComS inducer; 2-fold broth dilution, Todd-Hewitt medium, 37°C, 15 h; at least biological triplicates, each technical duplicates. Here is the method: as §6
In data set [8] the test system is S. pneumoniae R6 ΔbceAB/tcs01. It is filed as cell-based, Streptococcus pneumoniae. The note with it: R6 strain; 2-fold broth dilution, Todd-Hewitt medium, 37°C, 15 h; two to four biological replicates, each technical duplicates. On the procedure: as §6
Data set [9] has as its system S. pneumoniae R800 bceAB-gfp. It is filed as cell-based, Streptococcus pneumoniae. To be noted: R800 strain; 2-fold broth dilution, Todd-Hewitt medium, 37°C, 15 h; at least biological triplicates, each technical duplicates. Here is the method: as §6
The next data set concerns S. pneumoniae R800 Δhk01. It is filed as cell-based, Streptococcus pneumoniae. To be noted: R800 strain; 2-fold broth dilution, Todd-Hewitt medium, 37°C, 15 h; at least biological triplicates, each technical duplicates. On the procedure:
as §6

A further data set concerns S. pneumoniae R800 WT. It is filed as cell-based, Streptococcus pneumoniae. To be noted: R800 strain; 2-fold broth dilution, Todd-Hewitt medium, 37°C, 15 h; at least biological triplicates, each technical duplicates. Here is the method:
as §6

The target of data set [10] is BceAB transporter from S. pneumoniae (Streptococcus pneumoniae, UniProt A0A0H2ZN40). It is filed as biochemical. The note with it: BceAB proteoliposomes; Fig 7B; triplicates, representative of at least two experiments. Here is the method: as §1, §2, §3, §4, §5
Data set [11] deals with S. pneumoniae R6 WT and mutant strains. The data set can be described thus: Susceptibility to HNP-1 (colony counts). It is filed as cell-based, Streptococcus pneumoniae. To be noted: R6 WT versus mutant strains, 5, 10 or 20 μg/ml, 30 min, 1 h or 2 h, 37°C, preliminary work (S7 Fig). Here is the method:
Bacterial cells were routinely grown until OD600nm = 0.3 in THY and 5 mL of culture were centrifuged for 10 min at 5,000 g at 4°C. The pellet was resuspended in 5 ml of sterile PBS buffer and diluted twice at 1/100. 200 μl of the final dilution was incubated for 30 min, 1 h or 2 h at 37°C, 5% CO2 in 96-well plate with 5, 10 or 20 μg/ml of hNP1. Next, 10 μl from the final dilution (control cells at time zero in the absence of HNP-1) and the 96-well plate (cells incubated with HNP1) were plated onto pre-cast THY-agar medium supplemented with 4% defibrinated horse blood and incubated overnight at 37°C, […]. The next day, colonies were counted.

In brackets after ≈: the same amount, converted by molar mass.

On to “BceAB transporter from S. pneumoniae (Streptococcus pneumoniae D39)”, for which the Km turned out to be 1300 µM in [1] and 1000 µM in [2].

Consider `CN[C@H](CC(C)C)C(=O)N[C@H]1C(=O)N[C@@H](CC(N)=O)C(=O)N[C@H]2C(=O)N[C@H]3C(=O)N[C@H](C(=O)N[C@H](C(=O)O)c4cc(O)cc(O)c4-c4cc3ccc4O)[C@H](O)c3ccc(c(Cl)c3)Oc3cc2cc(c3O[C@@H]2O[C@H](CO)[C@@H](O)[C@H](O)[C@H]2O[C@H]2C[C@](C)(N)[C@H](O)[C@H](C)O2)Oc2ccc(cc2Cl)[C@H]1O` [vancomycin], for which, in data set [3], the “Transcription of the bceAB genes” value is given as “no upregulation”. Also, the “Minimum Inhibitory Concentration, ΔbceAB” value in the data set on S. pneumoniae D39 ΔbceAB was determined as 0.25 µg/mL; in the data set on S. pneumoniae R6 ΔbceAB it was 0.5 µg/mL. In addition, the figures for the “Minimum Inhibitory Concentration, Δtcs01” value in the data set on S. pneumoniae R6 Δtcs01 and in the data set with S. pneumoniae D39 Δtcs01 were 0.5 µg/mL and 0.25 µg/mL, respectively. The “Minimum Inhibitory Concentration, WT” value stood at 0.5 µg/mL in the data set with S. pneumoniae R6 WT (2-fold broth dilution, Todd-Hewitt medium, 96-well plates, start OD600 0.002, 37°C, A600 followed 15 h, two to four biological replicates, each technical duplicates) and 0.25 µg/mL in the data set on S. pneumoniae D39 WT (2-fold broth dilution, Todd-Hewitt medium, 37°C, 15 h, two to four biological replicates, each technical duplicates). Moreover, in the data set with S. pneumoniae R6 WT (KO strains versus WT MIC), the “Fold sensitivity displayed by the KO strains” value was 1. For the same compound, the “MIC, ΔbceAB” value in data set [4] was 0.25 µg/mL (≈ 0.173 µM). The “Minimum Inhibitory Concentration, ΔbceAB/tcs01” value in data set [5] worked out at 0.25 µg/mL; in [8], 0.5 µg/mL. For the same compound, in the data set with S. pneumoniae D39 WT (KO strains versus WT MIC), the “Fold sensitivity diplayed by the KO strains” value was 1. Moreover, the “MIC, Δhk01-PcomX-hk01” value in [6] worked out at 0.25 µg/mL (≈ 0.173 µM). In [7], the “MIC, ΔbceAB-Δhk01-PcomX-hk01” value worked out at 0.25 µg/mL (≈ 0.173 µM). Besides, in [9], the “MIC, bceAB-gfp” value amounted to 0.25 µg/mL (≈ 0.173 µM). Also, in the data set with S. pneumoniae R800 Δhk01, the “MIC, Δhk01” value stood at 0.25 µg/mL (≈ 0.173 µM). The “MIC, WT” value with S. pneumoniae R800 WT was 0.25 µg/mL (≈ 0.173 µM). Further, the “Effect on ATPase activity of BceAB” value in data set [10] is “did not significantly affect”.

Take “HNP1: human neutrophil defensin HNP1; purchased from Vivitide”: the “Resistance promoted by BceAB” value in data set [11] is “does not promote resistance”.
